IC50, melting point and Ki data for nine molecules are collected here from patent US20020173515A1, “Antiproliferative substituted 5-thiapyrimidinone and 5-selenopyrimidinone compounds” (priority 1992, published 2002).

Bounds are passed on as bounds.

Data set [1] concerns CCRF-CEM, a human lymphoblastic leukemia line of T-cell origin. Nature of the data set: Cellular growth inhibition, CCRF-CEM (MTT-tetrazolium reduction). The data set is classed as cell-based. The note with it: 120 h, 5 days continuous exposure. On the procedure:
(§1) Cellular growth in the presence of the compounds according to the present invention was assessed using two cell lines: the L1210 murine leukemia (ATCC CCL 219) and CCRF-CEM, a human lymphoblastic leukemia line of T-cell origin (ATCC CCL 119). Both lines were maintained in RPMI 1640 medium containing 5% heat-inactivated fetal bovine serum without antibiotics.
(§2) Growth was measured over 3 days (L1210) or 5 days (CCRF-CEM) of continuous exposure to varying concentrations of each test compound added 4 hours after initial cell plating by the MITT-tetrazolium reduction assay of Mosmann T. J. (Immunol. meth. 65, 55-63 (1983)), modified according to Alley et al. (Cancer Res. 48, 589-601 (1988)). Water insoluble derivatives were dissolved in DMSO and diluted to a final concentration of 0.5% solvent in cell cultures.
In general terms: Tetrazolium dyes change colour on reduction, which living cells bring about.

The next data set has as its system L1210 murine leukemia. Description: Cellular growth inhibition, L1210 (MTT-tetrazolium reduction). The data set is classed as cell-based. The note with it: Mus musculus, L1210, 72 h; 3 days continuous exposure; read-out: Cell Line, IC50 L1210. Here is the method:
as §1, §2

Data set [2] concerns the target T1, catalytic domain of the human GARFT (Homo sapiens, UniProt P22102).
T1 construct: Reaction mixtures contained the catalytic domain of the human GARFT
T1 sequence (P22102 810-1010 limits assumed): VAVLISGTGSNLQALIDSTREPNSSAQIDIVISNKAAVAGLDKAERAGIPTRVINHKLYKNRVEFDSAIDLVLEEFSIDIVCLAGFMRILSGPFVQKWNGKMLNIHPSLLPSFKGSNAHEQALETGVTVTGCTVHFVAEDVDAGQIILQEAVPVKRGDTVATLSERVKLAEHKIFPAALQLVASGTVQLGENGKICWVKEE
Nature of the data set: GARFT inhibition constants, Method II (modified Young et al. assay). The data set is classed as biochemical. The note with it: Method II (Examples 6, 7, 8 and 9); 20° C, 50 mM Tris-Cl pH 7.5, 20 μM GAR, 10 or 20 μM FDDF. Here is the method: Reaction mixtures contained the catalytic domain of the human GARFT, inhibitor, 20 μM glycinamide ribonucleotide (GAR), 10 or 20 μM N^10-formyl-5,8-dideazafolate (FDDF), and 50 mM Tris-Cl at pH 7.5.
GARFT constants (Ki) were determined from the dependence of the steady-state catalytic rate upon inhibitor and substrate concentration. […] The michaelis constant Km, was determined independently by the dependence of the catalytic rate upon FDDF concentration. Data for both the Km and Ki determinations were fitted by non-linear methods to the Michaelis equation or the Michaelis equation for competitive inhibition as appropriate.

Data set [3] has as its target T2, partially purified AICARFT from cultured CEM cells (Homo sapiens, UniProt P31939).
T2 construct: partially purified AICARFT from cultured CEM cells; endogenous in cells; host or cells: CEM cells (partially purified enzyme preparation)
Nature of the data set: AICARFT inhibition constants (modified Black et al. assay). The data set is classed as biochemical. Conditions: 37° C, 50 mM Tris-Cl pH 7.4, 50 μM racemic FTHF. Here is the method: Determination of Inhibition Constants for AICARFT
The assay method of Black et al. (Anal Biochem 90, 397-401 (1978)) was modified and used as described below. Buffers were degassed under vacuum prior to the preparation of substrate solutions and degassed buffer was used in the reaction mixtures. Reaction mixtures contained partially purified AICARFT from cultured CEM cells, inhibitor, 100 μM […] (5-aminoimidazole-4-carboxamide-ribonucleotide), 50 μM of a racemic mixture of N10-formyl-tetrahydrofolate (FTHF), 25 mM KCl, 50 mM 2-mercaptoethanol and 50 mM Tris-Cl pH 7.4. The reaction was initiated with the addition of the enzyme solution to a final concentration of 0.1 mg/mL and the reaction followed by monitoring the increase in absorbance at 298 nm at 37° C. (ε298=28 mM cm^−1).
AICARFT inhibition constants (Ki) were determined from the dependence of the steady-state catalytic rate upon inhibitor and substrate concentration. The type of inhibition observed and the determination of Ki was performed as described above for inhibitors of GARFT with the appropriate substrates and the AICARFT assay. Treatment of experimental data was essentially the same.

The test system of a further data set is L1210-C192. Nature of the data set: Cellular growth inhibition, L1210-C192. The data set is classed as cell-based. Conditions: read-out: Cell Line, IC50 L1210-C192.
The target in data set [4] is T3, GARFT domain of the human enzyme (Homo sapiens, UniProt P22102).
T3 construct: The GARFT domain of the human enzyme was used
T3 sequence (P22102 810-1010 limits assumed): T1 sequence (P22102 810-1010 limits assumed)
Description: GARFT inhibition constants, Method I (Cleland; spectrophotometric assay of Young et al.). The data set is classed as biochemical. Conditions: Method I (Examples 2-5 and 10); 22° C, 20 mM Hepes pH 7.5, 20 μM GAR, variable 10-formyl-5,8-dideazafolate. On the procedure:
Determination of Inhibition Constants for GARFT
The GARFT domain of the human enzyme was used. […] The assay mix contained 20 mM Hepes pH 7.5, 20 μM GAR, and variable amounts of 10-formyl-5,8-dideazafolate and inhibitor. For each inhibitor five concentrations were used ranging from 0 to approximately 3Ki. The data were plotted as the […] versus the reciprocal of the 10-formyl-5,8-dideaza-folate concentration. The inhibition constants were measured from a replot of the slopes of these lines obtained for each concentration of inhibitor versus the inhibitor concentration.

T2 sequence (P31939 whole entry): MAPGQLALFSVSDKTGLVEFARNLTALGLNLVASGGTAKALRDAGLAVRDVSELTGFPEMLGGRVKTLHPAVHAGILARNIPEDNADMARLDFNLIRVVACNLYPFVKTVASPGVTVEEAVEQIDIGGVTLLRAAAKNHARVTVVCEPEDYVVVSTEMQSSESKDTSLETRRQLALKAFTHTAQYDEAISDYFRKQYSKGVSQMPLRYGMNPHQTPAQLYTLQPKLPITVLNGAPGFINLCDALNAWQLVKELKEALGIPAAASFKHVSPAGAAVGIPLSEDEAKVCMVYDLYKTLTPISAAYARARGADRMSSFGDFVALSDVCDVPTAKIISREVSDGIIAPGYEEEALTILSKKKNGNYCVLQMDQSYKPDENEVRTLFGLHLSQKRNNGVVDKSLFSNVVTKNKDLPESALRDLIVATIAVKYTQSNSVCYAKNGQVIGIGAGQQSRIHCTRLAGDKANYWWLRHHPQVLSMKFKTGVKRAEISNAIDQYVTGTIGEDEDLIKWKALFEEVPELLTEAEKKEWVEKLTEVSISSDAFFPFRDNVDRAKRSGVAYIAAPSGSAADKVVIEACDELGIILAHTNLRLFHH

For `Nc1nc(N)c(SCCc2ccc(C(=O)N[C@@H](CCC(=O)O)C(=O)O)s2)c(=O)[nH]1` [Example 9, N-(5-[2-([2,6-Diamino-4(3H)-oxopyrimidin-5-yl]thio)ethyl]thieno-2-yl)-L-glutamic Acid], the melting point was 228 to 230 °C (dec.). The same molecule had an IC50 in data set [1] of 620 nM. In addition, the IC50 with L1210 murine leukemia is 250 nM. The Ki in data set [2] was found to be 2000 nM. The molecule further came in with an inhibitory constant (Ki) in data set [3] of 35000 nM. The IC50 in the data set on L1210-C192 was 22000 nM.
In the case of `Nc1nc(N)c(SCCSc2ccc(C(=O)N[C@@H](CCC(=O)O)C(=O)O)cc2)c(=O)[nH]1` [Example 4, N-[(4-[2-([2,6-diamino-4(3H)-oxopyrimidin-5-yl]thio)ethyl]thio)benzoyl]-S-glutamic Acid], the 50% inhibitory concentration (IC50) in data set [1] was 130 nM; with L1210 murine leukemia, 110 nM; in the data set with L1210-C192, 10000 nM. The affinity in data set [4] corresponds to a Ki of 110 nM.
With `Nc1nc(N)c(SCCc2ccc(C(=O)N[C@@H](CCC(=O)O)C(=O)O)cc2)c(=O)[nH]1` [Example 10], the melting point lay within 177 to 181 °C. In data set [1], this molecule showed an IC50 of 1200 nM. Also, the IC50 in the data set with L1210 murine leukemia came to 1500 nM. This molecule registered a Ki in data set [3] of 60000 nM. For the same molecule, in the data set on L1210-C192, the IC50 came out at 12000 nM. In addition, in data set [4], the Ki was determined as 30000 nM.
Take `Cc1cc(C(=O)N[C@@H](CCC(=O)O)C(=O)O)sc1CCCSc1c(N)nc(N)[nH]c1=O` [Example 7]: the IC50 in data set [1] was 99 nM; in the data set on L1210 murine leukemia, 89 nM; in the data set on L1210-C192 it was 28000 nM.
For `Cc1cc(CCCSc2c(N)nc(N)[nH]c2=O)sc1C(=O)N[C@@H](CCC(=O)O)C(=O)O` [Example 6], in that order: 68 nM, 120 nM and more than 25000 nM.
As to `Nc1nc(N)c(SCCNc2ccc(C(=O)N[C@@H](CCC(=O)O)C(=O)O)cc2)c(=O)[nH]1` [Example 5, N-[4-(N-[2-([2,6-diamino-4(3H)-oxopyrimidin-5-yl]thio)ethyl]amino)benzoyl]-S-glutamic Acid], the concentration for half-maximal inhibition (IC50) in data set [1] came to 80 nM; in the data set on L1210 murine leukemia, 90 nM; in the data set on L1210-C192, 4200 nM. This molecule also displayed a Ki in data set [4] of 88 nM.
With `Nc1nc(N)c(SCC2CCc3cc(C(=O)N[C@@H](CCC(=O)O)C(=O)O)sc3C2)c(=O)[nH]1` (stereo partly drawn) [Example 8, N-(6-[([2,6-diamino-4(3H)oxopyrimidin-5-yl]-thio)methyl]-4,5,6,7-tetrahydrobenzothieno-2-yl)-S-glutamic Acid], the 50% inhibitory concentration (IC50) in data set [1] came out at 8 nM; with L1210 murine leukemia, 10 nM; in the data set with L1210-C192 it was 9000 nM.
For `Nc1nc(N)c(SCCCc2ccc(C(=O)N[C@@H](CCC(=O)O)C(=O)O)cc2)c(=O)[nH]1` [Example 2, N-(4-(3-[2,6-diamino-4(3H)-oxopyrimidin-5-yl)thio]propyl)benzoyl-(S)-glutamic Acid], in that order: 65 nM, 79 nM and 5000 nM.
As to `Nc1nc(N)c(SCCCc2ccc(C(=O)N[C@@H](CCC(=O)O)C(=O)O)s2)c(=O)[nH]1` [Example 3, N-[2-(5-[3-([2,6-diamino-4(3H)-oxopyrimidin-5-yl]thio)propyl]-thienoyl)]-(S)-glutamic Acid], the IC50 in data set [1] is 49 nM; in the data set with L1210 murine leukemia, 40 nM; in the data set on L1210-C192, 10500 nM. The molecule also gave a Ki in data set [4] of 35 nM.

What is called IC50 is the concentration needed to halve the response being measured. By melting point is commonly meant the temperature, or range, at which the solid turns liquid. What is called Ki is a dissociation constant, usually derived from enzyme kinetics or from competition with a known ligand. Read a low Ki as higher affinity.
